Laboratory results: patent US20240180149A1, “FIRE ANT BAITS WITH ENHANCED SELECTIVITY” (The United States of America, as represented by the …, priority 2022, published 2024)
“Also recorded” adds a separate entry of the source.

Key:
[1] = test system: fire ants; assay: Multiple-choice field feeding bioassay on fire ants (soybean oil); format: in vivo, Solenopsis invicta; conditions: ten concentrations 0.015-6.6 mg/g in soybean oil, two sets (P=0.076; P=0.703), one-way ANOVA
Source text: Ant feeding bioassays—Multiple-choice and a paired two-choice bioassays were used in this study. An exemplary schematic of the multichoice bioassay field feeding setup is shown in FIG. 1A, and an exemplary schematic of the two-choice bioassay field feeding setup is shown in FIG. 1B. Soybean oil was used as a food source for all the bioassays (Great Value, purchased from Walmart in Greenville Mississippi, USA). The feeding apparatus was a filtered 1-ml pipette tip with the part 0.5 cm below the filter removed. In multiple-choice bioassays, five concentrations of the test compounds were tested with untreated soybean oil as a control, and in two-choice bioassays, the compound at certain concentration was tested against the control oil. Eighty microliter soybean oil was loaded onto each filter. After being weighed, the apparatuses with oil were placed in the field for about 2 hours. The apparatuses were then collected and frozen under −40° C. to kill all ants. The apparatuses were weighed again after all ants were removed from the apparatuses. The difference in the weight of apparatuses before and after the feeding bioassays was the oil consumption. Feeding sites were at least 10 m away from each other for fire ants, and 3 m away for little black ants and for thief ants. […]

[2] = test system: fire ants; assay: Two-choice field feeding bioassay on fire ants (soybean oil); format: in vivo, Solenopsis invicta; conditions: two-choice vs control oil
Source text: (§1) Ant feeding bioassays—Multiple-choice and a paired two-choice bioassays were used in this study. An exemplary schematic of the multichoice bioassay field feeding setup is shown in FIG. 1A, and an exemplary schematic of the two-choice bioassay field feeding setup is shown in FIG. 1B. Soybean oil was used as a food source for all the bioassays (Great Value, purchased from Walmart in Greenville Mississippi, USA). The feeding apparatus was a filtered 1-ml pipette tip with the part 0.5 cm below the filter removed. In multiple-choice bioassays, five concentrations of the test compounds were tested with untreated soybean oil as a control, and in two-choice bioassays, the compound at certain concentration was tested against the control oil. Eighty microliter soybean oil was loaded onto each filter. After being weighed, the apparatuses with oil were placed in the field for about 2 hours. The apparatuses were then collected and frozen under −40° C. to kill all ants. The apparatuses were weighed again after all ants were removed from the apparatuses. The difference in the weight of apparatuses before and after the feeding bioassays was the oil consumption. Feeding sites were at least 10 m away from each other for fire ants, and 3 m away for little black ants and for thief ants. The difference in oil consumption among/between treatment and control apparatuses was used to evaluate the effect of tested compound on the feeding of fire ants. For multiple-choice bioassays, a one-way ANOVA was performed to compare the effect of different concentrations of tested compound on the percentage of oil consumption. Tukey's HSD test was used for multiple comparisons. A paired t test was used in statistical analysis for the two-choice bioassays.
Two choice bioassays—Two-choice bioassays were conducted at six concentrations of trans-solenopsis A in soybean oil, including 6.6, 3.3, 1.7, 0.8, 0.4, and 0.2 mg/g for fire ants and little black ants, and four concentrations for thief ants including 6.6, 3.3, 1.7, and 0.8 mg/g. […]

[3] = test system: little black ants; assay: Two-choice field feeding bioassay on little black ants (soybean oil); format: in vivo, Monomorium minimum
Source text: as §1
(§2) Two choice bioassays—Two-choice bioassays were conducted at six concentrations of trans-solenopsis A in soybean oil, including 6.6, 3.3, 1.7, 0.8, 0.4, and 0.2 mg/g for fire ants and little black ants, and four concentrations for thief ants including 6.6, 3.3, 1.7, and 0.8 mg/g. Feeding sites were selected using blank bait (untreated soybean oil in the feeding apparatuses). Blank baits were placed at the flagged sites for 30 minutes before the bioassay, and active feeding sites then used for the bioassays. Bioassays on fire ants were conducted in open area where most baits were hit by fire ants. Bioassays on little black ants and thief ants were conducted under the bushes, since baits under the bushes had more chances to be hit by little black ants or thief ants.

[4] = test system: thief ants; assay: Two-choice field feeding bioassay on thief ants (soybean oil); format: in vivo, Solenopsis molesta
Source text: as §1, §2

[5] = two-choice vs control oil, 1.66 mg/g
[6] = two-choice vs control oil, 1.66 mg/g, listed as Trans-solenopsisn A
[7] = two-choice vs control oil, 3.3 mg/g
[8] = two-choice vs control oil, 3.3 mg/g, listed as Trans-solenopsisn A
[9] = two-choice vs control oil, 6.6 mg/g
[10] = two-choice vs control oil, 6.6 mg/g, listed as Trans-solenopsisn A

In the case of `CCCCCCCCCCC[C@@H]1CCC[C@@H](C)N1` (relative stereo) [trans-solenopsin A], the “effect on oil consumption by fire ants” value [1] is reported as “no significant effect on oil consumption”, the “feeding preference of fire ants for soybean oil” value (shortened to “feeding preference of fire ants”) ([2]; 0.27 mg/g (270 ppm), P=0.049) is reported as “fed preferentially on oil treated with trans-solenopsin A; also recorded: feed preferentially on soybean oil containing trans-solenopsin A” and the “feeding preference of fire ants” value ([2]; 0.42 mg/g (420 ppm), P=0.0585) is reported as “fed preferentially on oil treated with trans-solenopsin A; also recorded: feed preferentially on soybean oil containing trans-solenopsin A”. The “feeding preference of fire ants” value ([2]; 6.6 mg/g (6600 ppm), P=0.39) was “did not significantly affect the feeding preference”, the “inhibition of feeding by little black ants on soybean oil” value ([3]; two-choice vs control oil, 0.42 mg/g, P=0.07) was “very close to be statistically significant” and the “feeding by little black ants on soybean oil” value ([3]; two-choice vs control oil, 0.83 mg/g) was “significantly inhibited the feeding”. For the same compound, the “feeding by little black ants on soybean oil” value ([3]; two-choice vs control oil, 0.83 mg/g, listed as Trans-solenopsisn A) was “significantly inhibited feeding”, the “feeding by little black ants on soybean oil” value [3, 5] was “significantly inhibited the feeding” and the “feeding by little black ants on soybean oil” value [3, 6] was “significantly inhibited feeding”. The “feeding by little black ants on soybean oil” value [3, 7] was “significantly inhibited the feeding”, the “feeding by little black ants on soybean oil” value [3, 8] was “significantly inhibited feeding” and the “feeding by little black ants on soybean oil” value [3, 9] was “almost completely shut down; also recorded: significantly inhibited the feeding”. The “feeding by little black ants on soybean oil” value [3, 10] was “significantly inhibited feeding; also recorded: almost completely inhibited”, the “concentrations that significantly inhibited feeding by little black ants” value ([3]; two-choice, paired t test, P<=0.045) was greater than 0.42 mg/g and the “share of oil consumed by little black ants that was trans-solenopsin A treated” value ([3]; two-choice, 3.3 mg/g) was 9.63%. For the same compound, the “inhibition of feeding by thief ants on soybean oil” value ([4]; two-choice vs control oil, 0.80 mg/g, P=0.14) was “not statistically significant”, the “feeding by thief ants on soybean oil” value [4, 5] was “significantly inhibited the feeding” and the “feeding by thief ants on soybean oil” value [4, 6] was “feeding inhibition was significant”. The “feeding by thief ants on soybean oil” value [4, 7] was “significantly inhibited the feeding”, the “feeding by thief ants on soybean oil” value [4, 8] was “feeding inhibition was significant” and the “feeding by thief ants on soybean oil” value [4, 9] was “almost completely stopped; also recorded: completely shut down; also recorded: significantly inhibited the feeding”. The “feeding by thief ants on soybean oil” value [4, 10] was “feeding inhibition was significant; also recorded: almost completely inhibited” and the “share of oil consumed by thief ants that was trans-solenopsin A-treated” value ([4]; two-choice, concentration not restated (previous sentence: 3.3 mg/g)) was 1.52%.
